Where two headings read alike, the source gives them in different places.
How the values were obtained:
[1] = system: oxotremorine tremor response; experiment: Oxotremorine antagonism: affinity constant from shift of median effective tremor dose of oxotremorine (Dixon up-and-down method); type: in vivo, mice; settings: AL-301 set equal to 1.0
Protocol: It was tested in the following manner:
Four or more groups, each containing six female mice weighing 22 to 26 grams, were selected. To establish a control, each member of the first group was dosed in sequence with oxotremorine in the absence of any test compound.
In the Dixon method the first animal is treated at an arbitrarily selected level and the presence or absence of tremor response is noted. An increased or decreased dosage is then selected according to the schedule specified by the Dixon procedure for the second animal which would tend to produce a change in the tremor response.
For each test group, the increased median effective dose of oxotremorine was determined in the same manner.
To compare the potency of the test compound the affinity constant was obtained from the data. The affinity constant is that concentration of test compound which when administered blocks the oxotremorine response so that twice the concentration of oxotremorine is necessary to evoke the same response as was produced in the absence of the test compound.

[2] = system: tremoromimetic effects of oxotremorine; type: in vivo, mice
From the text: (§1) This "tremorolytic" dose is designated as T. As a standard for the peripheral effect the dose of the compound in mg/kg, which doubles the diameter of the pupil, is given. This "mydriatic" dose is designated as M. The ratio between M and T will constitute a standard for specific central effect of the substance. A higher value for M/T corresponds to a higher specificity.

diameter of the pupil = experiment: animal or person; type: in vivo, mice; settings: Mus musculus
From the text: as §1

[3] = system: oxotremorine-induced tremor; settings: cited from earlier work
[4] = mydriatic dose / tremorolytic dose, higher value = higher specificity
[5] = dose which doubles the diameter of the pupil, mice, read-out: Mydriatic Dose

## OC(CCN1CCCCC1)(c1ccccc1)C1CCCCC1 (stereo not drawn) [Artane, α-cyclohexyl-α-phenyl-1-piperidine-propanol, reference compound]
[1]
  Ratio of affinity constant dosages (relative potency): 1.8

## CC(C#CCN1CCCCCC1)N1CCCC1=O (stereo not shown) [N-(1-methyl-4-perhydroazepino-2-butynyl)-pyrrolidin-2-one]
[2]; mouse, in vivo, iv
  Tremorolytic Dose (T): 0.32 mg/kg
[2]; [4]
  M/T ratio (specific central effect): 6.25
Diameter of the pupil; [5]
  ED (doubling of pupil diameter): 2 mg/kg
[1]
  Ratio of affinity constant dosages (relative potency): 9.0

## CC(C#CCN1CCCCC1)N1CCCC1=O (stereo not shown) [N-(1-methyl-4-piperidino-2-butynyl)-pyrrolidin-2-one]
[1]
  Ratio of affinity constant dosages (relative potency): 8.5

## CC(C#CCN1CCCC1)N1CCCC1=O (stereo not shown) [N-(1-methyl-4-pyrrolidino-2-butynyl)-pyrrolidin-2-one]
[2]; dose which inhibits the effect of 150 μg/kg of oxotremorine i.v., mice
  Tremorolytic Dose (T): 0.19 mg/kg
[2]; [4]
  M/T ratio (specific central effect): 3.26
Diameter of the pupil; read-out: Mydriatic Dose (M)
  ED (doubling of pupil diameter): 0.62 mg/kg
[1]
  Ratio of affinity constant dosages (relative potency): 17.0
[1]; listed as n = 4
  Ratio of affinity constant dosages (relative potency): 17

## CN1[C@@H]2CC[C@H]1C[C@@H](OC(=O)C(CO)c1ccccc1)C2 (stereo partly shown) [atropine]
[3]; in words
  antagonism of oxotremorine-induced tremor: antagonize the oxotremorine-induced tremor
  side effect: antagonism of peripheral cholinergic effects of oxotremorine: antagonizing the peripheral cholinergic effects of oxotremorine

## OC(CCN1CCCCC1)(c1ccccc1)C1CCCCC1 (stereo not shown) [benzhexol, reference compound]
[2]; mouse, in vivo
  M/T ratio (specific central effect): 0.21
[2]; mouse, in vivo, iv
  Tremorolytic Dose (T): 5.5
Diameter of the pupil; [5]
  ED (doubling of pupil diameter): 1.15 mg/kg

## CCN(CC)CCOC(=O)C1(c2ccccc2)CCCC1 [caramiphen, 1-phenylcyclopentanecarboxylic acid 2-diethylaminoethyl ester]
[3]; in vivo
  side effect: antagonism of peripheral cholinergic effects of oxotremorine: antagonizing the peripheral cholinergic effects of oxotremorine
[3]; in words
  antagonism of oxotremorine-induced tremor: antagonize the oxotremorine-induced tremor

## O=C1CCCN1CC#CCN1CCCC1 [oxotremorine, N-(4-pyrrolidino-2-butynyl)-pyrrolidin-2-one]
[3]; immediately after injection by intravenous routes, several species of laboratory animals
  effects of oxotremorine: induces violent generalized tremors, spasticity, hypokinesia and parasympathomimetic effects
